# Assay results published in ChEMBL document CHEMBL5625209, “Rational design and optimization of acylthioureas as novel potent influenza virus non-nucleoside polymerase inhibitors” (Eur J Med Chem, 2023).
# Calls of active or inactive are those of the source. The calls are words filed in the database; no cut-off is given here.
# How the values were obtained:
# Influenza A virus [1] = test: Antiviral activity against Influenza A virus H1N1 (A/Puerto Rico/8/34) infected in MDCK cells assessed as reduction in viral proliferation at 20 nM pre-infected with virus for 1 hr followed by compound addition and measured after 48 hrs by crystal violet staining based plaque formation assay; assay type: functional, organism-based
# Influenza A virus [2] = test: Antiviral activity against Influenza A virus H1N1 (A/Puerto Rico/8/34) infected in MDCK cells assessed as reduction in nucleocapsid protein mRNA level by qRT-PCR analysis; assay type: functional, organism-based; conditions: dose 2-31.3 nM
# [3] = Cmax in Sprague-Dawley rat at 3 mg/kg, iv measured up to 24 hrs by LC-MS analysis; assay type: ADME, organism-based; conditions: in vivo
# [4] = Metabolic stability in human plasma assessed as remaining compound measured upto 120 mins by LC-MS/MS analysis; assay type: ADME, cell-free; conditions: read-out: Stability
# [5] = Metabolic stability in human liver microsomes assessed as half life preincubated for 5 mins followed by NADPH addition and measured upto 45 mins by LC-MS analysis; assay type: ADME, Microsome; conditions: time < 50 min
# [6] = Clearance in Sprague-Dawley rat at 3 mg/kg, iv measured up to 24 hrs by LC-MS analysis; assay type: ADME, organism-based; conditions: in vivo
# [7] = Metabolic stability in dog liver microsomes assessed as intrinsic clearance preincubated for 5 mins followed by NADPH addition and measured upto 45 mins by LC-MS analysis; assay type: ADME, Canis lupus familiaris, Microsome; conditions: time < 50 min, read-out: CLH
# [8] = Metabolic stability in dog liver microsomes assessed as half life preincubated for 5 mins followed by NADPH addition and measured upto 45 mins by LC-MS analysis; assay type: ADME, Canis lupus familiaris, Microsome; conditions: time < 50 min
# [9] = Metabolic stability in human plasma assessed as half life measured upto 120 mins by LC-MS/MS analysis; assay type: ADME, cell-free
# [10] = Toxicity in BALB/c mouse assessed as body weight loss at 1 g/kg, IG administered 3 times per day; conditions: in vivo, po, 1000 mg/kg
# Influenza A virus [11] = test: Antiviral activity against Influenza A virus H1N1 (A/Puerto Rico/8/34) infected in MDCK cells assessed as reduction in NP protein level at 1 uM treated at 4 hrs post infection by Western blot analysis; assay type: functional, organism-based
# [12] = Toxicity in BALB/c mouse assessed as lethargy at 1 g/kg, IG administered 3 times per day and measured for 14 days; conditions: in vivo, po, 1000 mg/kg, 336 h, time 14 day
# Influenza A virus [13] = test: Antiviral activity against Influenza A virus H1N1 (A/Puerto Rico/8/34) infected in MDCK cells assessed as reduction in NP protein level at 1 uM in presence of 125 uM rNTP by Western blot analysis; assay type: functional, organism-based
# [14] = AUC(0 to t) in Sprague-Dawley rat at 3 mg/kg, iv measured up to 24 hrs by LC-MS analysis; assay type: ADME, organism-based; conditions: in vivo
# Influenza A virus [15] = test: Inhibition of Influenza A virus RdRp activity assessed as reduction in Fluc/Rluc ratio; conditions: dose 0.5-50 µM
# [16] = Cmax in Sprague-Dawley rat at 10 mg/kg, po measured up to 24 hrs by LC-MS analysis; assay type: ADME, organism-based; conditions: in vivo
# [17] = Tmax in Sprague-Dawley rat at 3 mg/kg, iv measured up to 24 hrs by LC-MS analysis; assay type: ADME, organism-based; conditions: in vivo
# [18] = Toxicity in BALB/c mouse assessed as body weight loss at 1 g/kg, IG administered 3 times per day and measured on day 4 to 9; conditions: in vivo, po, 1000 mg/kg, time 4-9 day
# [19] = Metabolic stability in human liver microsomes assessed as intrinsic clearance preincubated for 5 mins followed by NADPH addition and measured upto 45 mins by LC-MS analysis; assay type: ADME, Microsome; conditions: time < 50 min, read-out: CLH
# Influenza A virus [20] = test: Antiviral activity against Influenza A virus H1N1 (A/Puerto Rico/8/34) infected in MDCK cells assessed as reduction in NP viral RNA level at 1 uM treated at 4 hrs post infection by qRT-PCR analysis; assay type: functional, organism-based
# Influenza A virus [21] = test: Antiviral activity against Influenza A virus H1N1 (A/Puerto Rico/8/34) infected in MDCK cells assessed as reduction in virus-induced cytopathic effect incubated for 48 hrs by CCK8 assay; assay type: functional, organism-based
# [22] = Metabolic stability in dog liver microsomes assessed as hepatic extraction ratio preincubated for 5 mins followed by NADPH addition and measured upto 45 mins by LC-MS analysis; assay type: ADME, Canis lupus familiaris, Microsome; conditions: time < 50 min
# Influenza A virus [23] = test: Antiviral activity against Influenza A virus H1N1 (A/Puerto Rico/8/34) infected in MDCK cells assessed as reduction in NP protein level at 1 uM in presence of rUTP by Western blot analysis; assay type: functional, organism-based
# [24] = Metabolic stability in human liver microsomes assessed as hepatic extraction ratio preincubated for 5 mins followed by NADPH addition and measured upto 45 mins by LC-MS analysis; assay type: ADME, Microsome; conditions: time < 50 min
# [25] = Metabolic stability in mouse liver microsomes assessed as hepatic extraction ratio preincubated for 5 mins followed by NADPH addition and measured upto 45 mins by LC-MS analysis; assay type: ADME, Microsome; conditions: time < 50 min
# [26] = Toxicity in BALB/c mouse assessed as anorexia at 1 g/kg, IG administered 3 times per day and measured for 14 days; conditions: in vivo, po, 1000 mg/kg, 336 h, time 14 day
# Influenza A virus [27] = test: Antiviral activity against Influenza A virus H1N1 (A/Puerto Rico/8/34) infected in MDCK cells assessed as reduction in NP protein level at 1 uM in presence of rNTP by Western blot analysis; assay type: functional, organism-based
# [28] = Oral bioavailability in Sprague-Dawley rat at 10 mg/kg measured up to 24 hrs by LC-MS analysis; assay type: ADME, organism-based; conditions: in vivo
# [29] = Toxicity in BALB/c mouse assessed as animal death at 1 g/kg, IG administered 3 times per day and measured for 14 days; conditions: in vivo, po, 1000 mg/kg, 336 h, time 14 day
# [30] = Half life in Sprague-Dawley rat at 3 mg/kg, iv measured up to 24 hrs by LC-MS analysis; assay type: ADME, organism-based; conditions: in vivo
# Influenza B virus [31] = test: Antiviral activity against influenza B virus Victoria/2/87 infected in MDCK cells; assay type: functional, organism-based; conditions: Victoria/2/87, MDCK
# Influenza B virus [32] = test: Antiviral activity against influenza B virus B/Yamagata/16/88 infected in MDCK cells; assay type: functional, organism-based; conditions: B/Yamagata/16/88, MDCK
# [33] = Metabolic stability in dog liver microsomes assessed as hepatic clearance preincubated for 5 mins followed by NADPH addition and measured upto 45 mins by LC-MS analysis; assay type: ADME, Canis lupus familiaris, Microsome; conditions: time < 50 min
# [34] = Metabolic stability in mouse liver microsomes assessed as intrinsic clearance preincubated for 5 mins followed by NADPH addition and measured upto 45 mins by LC-MS analysis; assay type: ADME, Microsome; conditions: time < 50 min, read-out: CLH
# Influenza A virus [35] = test: Antiviral activity against Influenza A virus H1N1 (A/Puerto Rico/8/34) infected in MDCK cells assessed as reduction in NP protein level at 1 uM in presence of rCTP by Western blot analysis; assay type: functional, organism-based
# [36] = Cytotoxicity against MDCK cells by CCK-8 assay; assay type: toxicity, cell-based, Canis lupus familiaris; conditions: dog
# [37] = AUC(0 to infinity) in Sprague-Dawley rat at 10 mg/kg, po measured up to 24 hrs by LC-MS analysis; assay type: ADME, organism-based; conditions: in vivo
# [38] = Metabolic stability in human liver microsomes assessed as hepatic clearance preincubated for 5 mins followed by NADPH addition and measured upto 45 mins by LC-MS analysis; assay type: ADME, Microsome; conditions: time < 50 min
# [39] = Toxicity in BALB/c mouse assessed as ruffled fur at 1 g/kg, IG administered 3 times per day and measured for 14 days; conditions: in vivo, po, 1000 mg/kg, 336 h, time 14 day
# [40] = Toxicity in BALB/c mouse assessed as clonic convulsion at 1 g/kg, IG administered 3 times per day and measured for 14 days; conditions: in vivo, po, 1000 mg/kg, 336 h, time 14 day
# [41] = Half life in Sprague-Dawley rat at 10 mg/kg, po measured up to 24 hrs by LC-MS analysis; assay type: ADME, organism-based; conditions: in vivo
# [42] = Metabolic stability in mouse liver microsomes assessed as hepatic clearance preincubated for 5 mins followed by NADPH addition and measured upto 45 mins by LC-MS analysis; assay type: ADME, Microsome; conditions: time < 50 min
# [43] = Selectivity index, ratio of CC50 for MDCK cells to EC50 for antiviral activity against Influenza A virus H1N1 (A/Puerto Rico/8/34) infected in MDCK cells; assay type: toxicity, cell-based; conditions: dog, read-out: Ratio CC50/EC50
# Influenza A virus [44] = test: Antiviral activity against Influenza A virus H1N1 (A/Puerto Rico/8/34) infected in BALB/c mouse at 100 mg/kg/day, po administered twice daily for 7 days and measured after 14 days; assay type: functional; conditions: time 14 day
# [45] = AUC(0 to t) in Sprague-Dawley rat at 10 mg/kg, po measured up to 24 hrs by LC-MS analysis; assay type: ADME, organism-based; conditions: in vivo
# [46] = AUC(0 to infinity) in Sprague-Dawley rat at 3 mg/kg, iv measured up to 24 hrs by LC-MS analysis; assay type: ADME, organism-based; conditions: Sprague-Dawley, in vivo
# [47] = Tmax in Sprague-Dawley rat at 10 mg/kg, po measured up to 24 hrs by LC-MS analysis; assay type: ADME, organism-based; conditions: in vivo
# [48] = Metabolic stability in mouse liver microsomes assessed as half life preincubated for 5 mins followed by NADPH addition and measured upto 45 mins by LC-MS analysis; assay type: ADME, Microsome; conditions: time < 50 min
# Influenza A virus [49] = test: Antiviral activity against Influenza A virus H1N1 (A/Puerto Rico/8/34) infected in MDCK cells assessed as reduction in nucleocapsid protein level by Western blot analysis; assay type: functional, organism-based; conditions: dose 2-125 nM
# Influenza A virus [50] = test: Antiviral activity against Influenza A virus H1N1 (A/Puerto Rico/8/34) infected in MDCK cells assessed as reduction in NP viral RNA level at 10 uM treated at 1 hr post infection by qRT-PCR analysis; assay type: functional, organism-based
# Influenza A virus [51] = test: Antiviral activity against Influenza A virus H1N1 (A/Puerto Rico/8/34) infected in MDCK cells assessed as reduction in NP protein level at 10 uM treated at 1 hr post infection by Western blot analysis; assay type: functional, organism-based
# [52] = Metabolic stability in human plasma measured upto 120 mins by LC-MS/MS analysis; assay type: ADME, cell-free; conditions: 2 h
# [53] = Metabolic stability in human plasma after 15 mins by LC-MS/MS analysis; assay type: ADME, cell-free; conditions: 0.25 h, BLD = below limit of detection
compound,measurement,setting,value
CC(C)(C)c1ccc(C(=O)NC(=S)Nc2ccc(NC(=O)c3ccc(C(C)(C)C)cc3)cc2)cc1,Activity,Influenza A virus [1],Active
same,Activity,Influenza A virus [2],Dose-Dependent Effect
same,Cmax,[3],41900 ng/mL
same,remaining at 2 h,[4],64%
same,half-life,[5],1.28 h
same,clearance,[6],2.29 mL/min/kg
same,CLint scaled,[7],55.1 mL/min/kg
same,half-life,[8],1.04 h
same,half-life,[9],3.2 h
same,Activity,[10],Toxic
same,Activity,Influenza A virus [11],Active
same,Activity,[12],Non-Toxic
same,Activity,Influenza A virus [13],inactive
same,AUC(0-t) at 24 h,[14],21900 ng·h/mL
same,inhibition,Influenza A virus [15],Dose-Dependent Effect
same,Cmax,[16],1180 ng/mL
same,Tmax,[17],4.8 min
same,Activity,[18],Non-Toxic
same,CLint scaled,[19],22.7 mL/min/kg
same,Activity,Influenza A virus [20],Active
same,EC50,Influenza A virus [21],1 nM
same,hepatic extraction ratio at 0.75 h,[22],64.1%
same,Activity,Influenza A virus [23],inactive
same,hepatic extraction ratio at 0.75 h,[24],52.3%
same,hepatic extraction ratio at 0.75 h,[25],53.1%
same,Activity,[26],Non-Toxic
same,Activity,Influenza A virus [27],inactive
same,bioavailability,[28],7.38%
same,Activity,[29],Non-Toxic
same,half-life,[30],3.69 h
same,EC50,Influenza B virus [31],40 nM
same,EC50,Influenza B virus [32],50 nM
same,CLhep predicted,[33],19.8 mL/min/kg
same,CLint scaled,[34],102 mL/min/kg
same,Activity,Influenza A virus [35],inactive
same,CC50,[36],> 100000 nM
same,AUC(0-inf),[37],5400 ng·h/mL
same,CLhep predicted,[38],10.8 mL/min/kg
same,Activity,[39],Non-Toxic
same,Activity,[40],Non-Toxic
same,half-life,[41],3.26 h
same,CLhep predicted,[42],47.8 mL/min/kg
same,selectivity ratio,[43],> 120000
same,Activity,Influenza A virus [44],50%
same,AUC(0-t) at 24 h,[45],5420 ng·h/mL
same,AUC(0-inf),[46],21900 ng·h/mL
same,Tmax,[47],4 h
same,half-life,[48],0.891 h
same,Activity,Influenza A virus [49],Dose-Dependent Effect
NC12CC3CC(CC(C3)C1)C2,Activity,Influenza A virus [50],Active
same,Activity,Influenza A virus [51],Active
CCN(CC)CCOC(=O)c1ccc(N)cc1 [PROCAINE],half-life,[9],0.0187 h
same,Stability,[52],Unstable
same,Stability,[53],Bld
